Results taken from patent US4847254A, “CNS affecting 5-oxy-3-aminomethyl-dihydro-benzofurans and benzothiophenes” (H. Lundbeck A/S, priority 1987, dated 1989).

How the values were obtained:
DA receptors = test: DA stimulating properties / effect at pre- and postsynaptic DA receptors (general statement); format: in vivo; details: statement in words
DA-autoreceptors = test: Inhibition of spontaneous locomotor activity (motility inhibition) in rats; format: in vivo, rat (Wistar); details: doses calculated as the free amine
DA-receptor = test: Contralateral circling in rats with unilateral 6-hydroxy-DA (6-OHDA) lesions; format: in vivo, rat (Wistar); details: 6-OHDA-lesioned rats, doses calculated as the free amine
Method: Furthermore, the potency of the drug to induce contralateral circling behaviour in 6-hydroxy-DA-lesioned rats was determined. The specificity of this receptor resembles that of the […] DA receptors mediating motility inhibition.
The experiments were made according to published methods, using rats of the Wistar strain.
Therefore, also the ability of a test compound to induce contralateral circling in rats with unilateral 6-hydroxy-DA lesions was evaluated (loc cit.).

[1] = system: postsynaptic DA-receptors; details: reversal of locomotor depression in DA-depleted rats; statement in words; cited from earlier work
[2] = system: postsynaptic DA-receptors; test: Reversal of locomotor depression (hypomotility) in reserpine plus alpha-methyl-p-tyrosine pretreated rats; format: in vivo, rat (Wistar)
[3] = system: presynaptic DA-receptors (DA-autoreceptors); details: cited from earlier work

| SMILES | DA stimulating properties (DA receptors) | Motility Inh. rats (sc) ED50 (DA-autoreceptors) | 6-OHDA Contr. Circle. rats (sc) ED50 (DA-receptor) | effect in reserpine plus alpha-methyl-p-tyrosine model [1] | Reserpin α-Mt Rev. rats (sc) ED50 [2] | clinical success at low doses ([3]; low doses, patients with schizophrenia and tardive dyskinesias) | selectivity of action at DA autoreceptors vs postsynaptic DA receptors ([3]; postsynaptic DA receptors stimulated by slightly higher doses) | Reserpin α-Mt Rev. rats (sc) % at 5 μmol/kg ([2]; 5 μmol/kg) |
| --- | --- | --- | --- | --- | --- | --- | --- | --- |
| CCCN(CCC)CC1CCc2ccccc21 (stereo not drawn) [Lu 21-091, N,N-Dipropyl-1-indanmethylamine] | without any DA stimulating properties | > 62 µmol/kg | > 62 µmol/kg |  |  |  |  |  |
| CCCN1CCC[C@@H](c2cccc(O)c2)C1 [(--)-3-PPP, reference compound] |  | 4.2 to 11 µmol/kg | 0.77 µmol/kg | without effect | > 67 µmol/kg |  |  |  |
| CN1CCc2cccc3c2[C@H]1Cc1ccc(O)c(O)c1-3 [Apomorphine, apomorphine, reference compound] |  | 0.64 µmol/kg | 0.06 µmol/kg |  | 0.27 µmol/kg | used with some success | no selective action at DA autoreceptors |  |
| CCCN(C)CC1COc2ccc(O)cc21 (single isomer, unassigned; (-)) [Lu 25-021, (-)-5-hydroxy-2,3-dihydro-N-methyl-N-propyl-3-benzofuranmethylamine] |  | 5.4 µmol/kg | 5.2 µmol/kg |  | 290 µmol/kg |  |  |  |
| CCCN(C)CC1COc2ccc(O)cc21 (single isomer, unassigned; (+)) [Lu 25-020, (+)-5-hydroxy-2,3-dihydro-N-methyl-N-propyl-3-benzofuranmethylamine] |  | 4.1 µmol/kg | 0.95 µmol/kg |  | 65 µmol/kg |  |  |  |
| CCCN(CCC)CC1CCc2ccc(O)cc21 (single isomer, unassigned; (-)) [Lu 22-050, (-)-N,N-dipropyl-6-hydroxy-1-indanmethylamine] |  | 1.3 µmol/kg | 0.45 µmol/kg |  | 60 µmol/kg |  |  |  |
| CCCN(CCC)CC1CCc2ccc(O)cc21 (stereo not drawn) [Lu 21-051, N,N-dipropyl-6-hydroxy-1-indanmethylamine] |  | 0.45 µmol/kg | 0.35 µmol/kg |  |  |  |  | 44% |
| CCCN(C)CC1CCc2ccc(O)cc21 (stereo not drawn) [Lu 25-009, 6-Hydroxy-N-methyl-N-propyl-1-indanmethylamine] |  | 0.65 µmol/kg | 0.82 µmol/kg |  | 66 µmol/kg |  |  |  |
| CCCN(CCO)CC1COc2ccc(O)cc21 (stereo not drawn) [Lu 24-102, 5-Hydroxy-2,3-dihydro-N-(2-hydroxyethyl)-N-propyl-3-benzofuranmethylamine] |  | 5.4 µmol/kg | 2.1 µmol/kg |  | 19 µmol/kg |  |  |  |
